Measured values from patent US11958861B2, “Spirocyclic lactams as JAK2 V617F inhibitors” (Incyte Corporation, priority 2021, dated 2024).
Structures can show the parent of a compound that is named as a salt.

Assays:
[1] = target: T1, pseudo-kinase domain (JH2, amino-acids 536-812) of human V617F mutant JAK2 (Homo sapiens, UniProt O60674, F794H/V617F/W659A/W777A); assay: JAK2 LanthaScreen JH2-V617F Binding Assay; conditions: 1 hour at 25° C.
T1 construct: pseudo-kinase domain (JH2, amino-acids 536-812 with 3 surface mutations W659A, W777A, F794H); purchased BPS Bioscience 79498; host or cells: baculovirus expression system
T1 sequence (O60674 536-812 V617F/W659A/W777A/F794H): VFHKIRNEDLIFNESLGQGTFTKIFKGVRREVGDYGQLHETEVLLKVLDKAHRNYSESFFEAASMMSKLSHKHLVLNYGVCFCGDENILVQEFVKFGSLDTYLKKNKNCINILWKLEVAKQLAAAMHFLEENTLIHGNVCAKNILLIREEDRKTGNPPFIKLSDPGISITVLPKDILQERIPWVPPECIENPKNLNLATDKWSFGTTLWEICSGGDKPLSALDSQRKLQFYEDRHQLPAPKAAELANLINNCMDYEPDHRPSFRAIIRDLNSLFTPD
Method in brief: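 Biotinylated His-Avi-tagged construct, baculovirus-expressed, at 0.26 nM; compounds competed against 50 nM fluorescent JH2 tracer with 0.25 nM streptavidin-Tb in Tris pH 7.5 buffer. Non-specific binding defined with 2 mM ATP. Read after 1 h at 25° C by TR-FRET; IC50 from four-parameter fit.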

[2] = target: T2, pseudo-kinase domain (JH2, amino-acids 536-812) of human Wild Type JAK2 (Homo sapiens, UniProt O60674, F794H/W659A/W777A); assay: JAK2 LanthaScreen JH2-WT Binding Assay; conditions: 1 hour at 25° C.
T2 construct: pseudo-kinase domain (JH2, amino-acids 536-812 with 3 surface mutations W659A, W777A, F794H); purchased BPS Bioscience 79463; host or cells: baculovirus expression system
T2 sequence (O60674 536-812 W659A/W777A/F794H): as the sequence (O60674 536-812 V617F/W659A/W777A/F794H) above, with F82V counted along it
Method in brief: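 Compounds, serially diluted, were mixed with 0.145 nM JH2 domain, 50 nM tracer and 0.25 nM streptavidin-Tb cryptate, then incubated 1 hour at 25° C before LanthaScreen reading. Wells containing 2 mM ATP defined non-specific binding. Four-parameter dose-response curves gave IC50.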

[3] = target: T3, catalytic domain (JH1, amino acids 826-1132) of human JAK2 (Homo sapiens, UniProt O60674); assay: JAK2 LanthaScreen JH1 Binding Assay; conditions: 2 hours at 25° C.
T3 construct: catalytic domain (JH1, amino acids 826-1132) of human JAK2; purchased Carna Biosciences 08-445-20N; host or cells: baculovirus expression system
T3 sequence (O60674 826-1132): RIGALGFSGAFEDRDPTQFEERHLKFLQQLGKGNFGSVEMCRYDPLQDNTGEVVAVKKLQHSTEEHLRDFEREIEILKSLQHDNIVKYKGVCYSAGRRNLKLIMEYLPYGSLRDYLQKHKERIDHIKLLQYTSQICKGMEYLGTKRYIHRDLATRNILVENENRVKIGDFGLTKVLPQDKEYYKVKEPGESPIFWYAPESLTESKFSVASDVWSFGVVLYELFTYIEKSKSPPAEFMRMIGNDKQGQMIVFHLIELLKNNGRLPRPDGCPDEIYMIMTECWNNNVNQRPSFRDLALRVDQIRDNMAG
Method in brief: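 FLAG-tagged biotinylated JAK2 JH1 (1.5 nM) incubated with compounds, 50 nM fluorescent tracer and 0.5 nM streptavidin-Tb in Tris pH 7.5 buffer with MgCl2, BSA, DTT, 2 h at 25 °C.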

[4] = target: T4, catalytic domain (JH1, amino acids 808-1132) of human JAK2 (Homo sapiens, UniProt O60674); assay: JAK2 HTRF Enzyme Activity Assay; type: biochemical; conditions: ATP 30 μM, read-out: ENZ 30UMATP
T4 construct: catalytic domain (JH1, amino acids 808-1132) of human JAK2; His (N); purchased BPS Bioscience 40450; host or cells: baculovirus expression system
T4 sequence (O60674 808-1132): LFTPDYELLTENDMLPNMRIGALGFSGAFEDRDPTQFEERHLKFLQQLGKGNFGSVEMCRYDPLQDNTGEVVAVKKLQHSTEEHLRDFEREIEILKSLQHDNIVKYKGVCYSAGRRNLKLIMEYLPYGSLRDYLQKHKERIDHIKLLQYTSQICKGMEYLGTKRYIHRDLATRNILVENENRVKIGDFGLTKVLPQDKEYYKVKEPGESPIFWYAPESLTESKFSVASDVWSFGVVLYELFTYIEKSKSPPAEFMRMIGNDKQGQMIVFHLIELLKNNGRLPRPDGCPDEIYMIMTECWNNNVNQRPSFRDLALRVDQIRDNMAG
Method in brief: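 His-tagged JAK2 JH1 from baculovirus, 0.015 nM, incubated with compound, ATP at 30 μM or 1 mM and 500 nM biotinylated peptide, pH 7.5, 60 min at 25° C. HTRF read-out via Eu-anti-phosphotyrosine and streptavidin-APC after EDTA stop; IC50 from four-parameter dose-response fit.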

SMILES | IC50 [1] [nM] | IC50 [2] [nM] | IC50 [3] [nM] | IC50 [4] [nM]
CN1C(=O)C2(CCN(C3(CC#N)CCC3)CC2)c2c1cnc1[nH]c(-c3cnn(CC(C)(C)O)c3)c(-c3ccc(C(F)(F)F)cc3)c21 [Example 52, 2-(1-(2-(1-(2-Hydroxy-2-methylpropyl)-1H-pyrazol-4-yl)-6-methyl-7-oxo-1-(4-(trifluoromethyl)phenyl)-6,7-dihydro-3H-spiro[dipyrrolo[2,3-b:3′,2′-d]pyridine-8,4′-piperidin]-1′-yl)cyclobutyl)acetonitrile, trifluoroacetate salt] | ≤ 100 | ≤ 100 | > 2500 | > 2500
CCS(=O)(=O)N1CC2(C1)CC1(C2)C(=O)N(C)c2cnc3[nH]c(-c4cnn(C(C)C)c4)c(-c4ccc5c(cnn5C)c4)c3c21 [Example 54, 1-(Ethylsulfonyl)-2″-(1-isopropyl-1H-pyrazol-4-yl)-6″-methyl-1″-(1-methyl-1H-indazol-5-yl)-3″,6″-dihydro-7″H-dispiro[azetidine-3,1′-cyclobutane-3′,8″-dipyrrolo[2,3-b:3′,2′-d]pyridin]-7″-one, trifluoroacetate salt] | ≤ 100 | ≤ 100 | 500 to 1250 | 500 to 1250
CN1C(=O)C2(Cc3ccccc3C2)c2c1cnc1[nH]c(-c3ccc(CN4CCC(S(C)(=O)=O)CC4)cc3)cc21 [Example 57, 6-Methyl-2-(4-((4-(methylsulfonyl)piperidin-1-yl)methyl)phenyl)-1′,3,3′,6-tetrahydro-7H-spiro[dipyrrolo[2,3-b:3′,2′-d]pyridine-8,2′-inden]-7-one] | > 2500 | 1250 to 2500 | > 2500 | > 2500
[2H]C([2H])([2H])n1ncc2cc(-c3c(-c4cnn(C)c4)[nH]c4ncc5c(c34)C3(CC4(CCN(C(=O)OC)CC4)C3)C(=O)N5C)ccc21 [Example 58, Methyl 6-methyl-2-(1-methyl-1H-pyrazol-4-yl)-1-(1-(methyl-d3)-1H-indazol-5-yl)-7-oxo-6,7-dihydro-3H-dispiro[dipyrrolo[2,3-b:3′,2′-d]pyridine-8,1′-cyclobutane-3′,4″-piperidine]-1″-carboxylate, trifluoroacetate salt] | ≤ 100 | ≤ 100 | 1250 to 2500 | 1250 to 2500
CCCC(=O)N1CCC2(CC1)CC1(C2)C(=O)N(C)c2cnc3[nH]c(-c4cnn(C)c4)c(-c4ccc5c(cnn5C)c4)c3c21 [Example 59, 1″-Butyryl-6-methyl-1-(1-methyl-1H-indazol-5-yl)-2-(1-methyl-1H-pyrazol-4-yl)-3,6-dihydro-7H-dispiro[dipyrrolo[2,3-b:3′,2′-d]pyridine-8,1′-cyclobutane-3′,4″-piperidin]-7-one, trifluoroacetate salt] | ≤ 100 | ≤ 100 | 1250 to 2500 | 1250 to 2500
CN(C)C(=O)N1CCC2(CC1)CC1(C2)C(=O)N(C)c2cnc3[nH]c(-c4cnn(C)c4)c(-c4ccc5c(cnn5C)c4)c3c21 [Example 60, N,N,6-Trimethyl-1-(1-methyl-1H-indazol-5-yl)-2-(1-methyl-1H-pyrazol-4-yl)-7-oxo-6,7-dihydro-3H-dispiro[dipyrrolo[2,3-b:3′,2′-d]pyridine-8,1′-cyclobutane-3′,4″-piperidine]-1″-carboxamide, trifluoroacetate salt] | ≤ 100 | ≤ 100 | 1250 to 2500 | 1250 to 2500
COC(=O)N1CCC2(CC1)CC1(C2)C(=O)N(C)c2cnc3[nH]c(-c4cnn(C)c4)c(-c4ccc5c(cnn5C)c4)c3c21 [Example 61, Methyl 6-methyl-1-(1-methyl-1H-indazol-5-yl)-2-(1-methyl-1H-pyrazol-4-yl)-7-oxo-6,7-dihydro-3H-dispiro[dipyrrolo[2,3-b:3′,2′-d]pyridine-8,1′-cyclobutane-3′,4″-piperidine]-1″-carboxylate, trifluoroacetate salt] | ≤ 100 | ≤ 100 | 500 to 1250 | 500 to 1250
COCCS(=O)(=O)N1CCC2(CC1)CC1(C2)C(=O)N(C)c2cnc3[nH]c(-c4cnn(C)c4)c(-c4ccccc4)c3c21 [Example 62, 1″-((2-Methoxyethyl)sulfonyl)-6-methyl-2-(1-methyl-1H-pyrazol-4-yl)-1-phenyl-3,6-dihydro-7H-dispiro[dipyrrolo[2,3-b:3′,2′-d]pyridine-8,1′-cyclobutane-3′,4″-piperidin]-7-one, trifluoroacetate salt] | ≤ 100 | ≤ 100 | > 2500 | > 2500
CCCC(=O)N1CCC2(CC1)CC1(C2)C(=O)N(C)c2cnc3[nH]c(-c4ccn(C)c4)c(-c4ccc5c(cnn5C)c4)c3c21 [Example 64, 1″-Butyryl-6-methyl-1-(1-methyl-1H-indazol-5-yl)-2-(1-methyl-1H-pyrrol-3-yl)-3,6-dihydro-7H-dispiro[dipyrrolo[2,3-b:3′,2′-d]pyridine-8,1cyclobutane-3′,4″-piperidin]-7-one, trifluoroacetate salt] | ≤ 100 | ≤ 100 | 1250 to 2500 | 1250 to 2500
CN1C(=O)C2(CCN(C3(CC#N)CCCC3)CC2)c2c1cnc1[nH]c(-c3cnn(C)c3)c(-c3ccc4c(cnn4C)c3)c21 [Example 73, 2-(1-(6-Methyl-1-(1-methyl-1H-indazol-5-yl)-2-(1-methyl-1H-pyrazol-4-yl)-7-oxo-6,7-dihydro-3H-spiro[dipyrrolo[2,3-b:3′,2′-d]pyridine-8,4′-piperidin]-1′-yl)cyclopentyl)acetonitrile, trifluoroacetate salt] | ≤ 100 | ≤ 100 | 100 to 500 | 100 to 500
CN1C(=O)C2(C=CN(C3(CC#N)CC3)C=C2)c2c1cnc1[nH]c(-c3cnn(C)c3)c(-c3ccc4c(cnn4C)c3)c21 [Example 74, 2-(1-(6-Methyl-1-(1-methyl-1H-indazol-5-yl)-2-(1-methyl-1H-pyrazol-4-yl)-7-oxo-6,7-dihydro-1′H,3H-spiro[dipyrrolo[2,3-b:3′,2′-d]pyridine-8,4′-pyridin]-1′-yl)cyclopropyl)acetonitrile, trifluoroacetate salt] | ≤ 100 | ≤ 100 | 500 to 1250 | 500 to 1250
CN1C(=O)C2(CCN(C(C)(C)c3c[nH]nn3)CC2)c2c1cnc1[nH]c(-c3cnn(C)c3)c(-c3ccc4c(cnn4C)c3)c21 [Example 76, 1′-(2-(1H-1,2,3-Triazol-4-yl)propan-2-yl)-6-methyl-1-(1-methyl-1H-indazol-5-yl)-2-(1-methyl-1H-pyrazol-4-yl)-3,6-dihydro-7H-spiro[dipyrrolo[2,3-b:3′,2′-d]pyridine-8,4′-piperidin]-7-one] | ≤ 100 | ≤ 100 | 100 to 500 | 100 to 500
CN1C(=O)C2(CCN(C(C)(C)c3nnc[nH]3)CC2)c2c1cnc1[nH]c(-c3cnn(C)c3)c(-c3ccc4c(cnn4C)c3)c21 [Example 77, 1′-(2-(4H-1,2,4-Triazol-3-yl)propan-2-yl)-6-methyl-1-(1-methyl-1H-indazol-5-yl)-2-(1-methyl-1H-pyrazol-4-yl)-3,6-dihydro-7H-spiro[dipyrrolo[2,3-b:3′,2′-d]pyridine-8,4′-piperidin]-7-one] | ≤ 100 | ≤ 100 | 500 to 1250 | 500 to 1250
